The values that follow come from patent publication US20220324880A1, “SMARCA INHIBITORS AND USES THEREOF” (Kymara Therapeutics, Inc., priority 2019, published 2022).

A word on the Kd: it is the free concentration of one partner at which half of the binding sites on the other are occupied at equilibrium, for simple one-to-one binding. In general, IC50 refers to the point on the concentration scale where inhibition reaches its midpoint.

The target in experiment [1] is T1, SMARCA2 (Homo sapiens, UniProt P51531). Put plainly: SMARCA2 BromoScan bromodomain binding assay (phage-displayed bromodomain, qPCR readout). Set-up: made in house; host or cells: E. coli host derived from the BL21 strain (T7 phage lysate). The following applies: read-out: BromoScan Panel - SMARCA2: External Kd. On the procedure: Bromodomain assays. T7 phage strains displaying bromodomains were grown in parallel in 24-well blocks in an E. coli host derived from the BL21 strain. E. coli were grown to log-phase and infected with T7 phage from a frozen stock (multiplicity of infection=0.4) and incubated with shaking at 32° C. until lysis (90-150 minutes). The lysates were centrifuged (5,000×g) and filtered (0.2 μm) to remove cell debris. Streptavidin-coated magnetic beads were treated with biotinylated small molecule or acetylated peptide ligands for 30 minutes at room temperature to generate affinity resins for bromodomain assays. […] Test compounds were prepared as 1000λ stocks in 100% DMSO. Kds were determined using an 11-point 3-fold compound dilution series with one DMSO control point. […] The compounds were then diluted directly into the assays such that the final concentration of DMSO was 0.09%. All reactions performed in polypropylene 384-well plates. Each was a final volume of 0.02 ml. […] The bromodomain concentration in the eluates was measured by qPCR. Compound Handling: An 11-point 3-fold serial dilution of each test compound was prepared in 100% DMSO at 1000× final test concentration. […] The compounds were then diluted directly into the assays such that the final concentration of DMSO was 0.09%. […] Binding constants (Kds) were calculated with a standard dose-response curve using the Hill equation. Curves were fitted using a non-linear least square fit with the Levenberg-Marquardt algorithm.
In general terms: Real-time PCR tracks product formation cycle by cycle.
Target sequence in this assay (P51531 1378-1506 limits assumed): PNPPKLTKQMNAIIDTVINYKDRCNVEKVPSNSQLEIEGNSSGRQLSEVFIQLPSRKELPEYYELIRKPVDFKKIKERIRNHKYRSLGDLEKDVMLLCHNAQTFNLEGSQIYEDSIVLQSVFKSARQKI

Experiment [2] deals with T1, SMARCA2. In words: SMARCA2 HTRF assay (His-tagged SMARCA2-17, anti-6His Tb cryptate). The following applies: read-out: SMARCA2 binding Human HTRF: Average IC50. On the procedure:
Sample handling: Prepared 1× Epigenetics Buffer according to manufacturer's instructions. Prepared 32 nM SMARCA2-17 (4X) with Epigenetics Buffer; Prepared 4× Tb working solution: dilute Mab Anti 6His Tb cryptate Gold in PPI-Terbium Detection buffer to 0.21 ng/l (100× dilution from stock). Prepared SMARCA2-mAb-Tb working solution by mixing equal volume of 32 nM SMARCA2 with Tb working solution. Started a half-hour timer. In a 96-well plate, prepared serial dilution of compound DMSO solutions. Placed 24 μl/well of Epigenetics Buffer to a second 96-well plate. Transferred 1 μl of the 100× compound DMSO solution to the second 96-well plate to make 4× compound working solution. Prepared 80 nM SMA-611-001H/SMA-788-001H (4×) with Epigenetics Buffer. Added 5 μl/well of SMA-611-001H into the 384-well plate. Added 5 μl/well of SMA-788-001H into the 384-well plate. Added 5 μl/well of 4× compound working solution into the 384-well plate, mix well. Added 10 µl/well of SMARCA2-mAb-Tb working solution into 384-well plate. Incubated the above mixtures at room temperature for 30 min. Data collected, processed and on EnVision. Calculated 520 nm/495 nm readouts ratio from raw data.
Target sequence in this assay (P51531 whole entry): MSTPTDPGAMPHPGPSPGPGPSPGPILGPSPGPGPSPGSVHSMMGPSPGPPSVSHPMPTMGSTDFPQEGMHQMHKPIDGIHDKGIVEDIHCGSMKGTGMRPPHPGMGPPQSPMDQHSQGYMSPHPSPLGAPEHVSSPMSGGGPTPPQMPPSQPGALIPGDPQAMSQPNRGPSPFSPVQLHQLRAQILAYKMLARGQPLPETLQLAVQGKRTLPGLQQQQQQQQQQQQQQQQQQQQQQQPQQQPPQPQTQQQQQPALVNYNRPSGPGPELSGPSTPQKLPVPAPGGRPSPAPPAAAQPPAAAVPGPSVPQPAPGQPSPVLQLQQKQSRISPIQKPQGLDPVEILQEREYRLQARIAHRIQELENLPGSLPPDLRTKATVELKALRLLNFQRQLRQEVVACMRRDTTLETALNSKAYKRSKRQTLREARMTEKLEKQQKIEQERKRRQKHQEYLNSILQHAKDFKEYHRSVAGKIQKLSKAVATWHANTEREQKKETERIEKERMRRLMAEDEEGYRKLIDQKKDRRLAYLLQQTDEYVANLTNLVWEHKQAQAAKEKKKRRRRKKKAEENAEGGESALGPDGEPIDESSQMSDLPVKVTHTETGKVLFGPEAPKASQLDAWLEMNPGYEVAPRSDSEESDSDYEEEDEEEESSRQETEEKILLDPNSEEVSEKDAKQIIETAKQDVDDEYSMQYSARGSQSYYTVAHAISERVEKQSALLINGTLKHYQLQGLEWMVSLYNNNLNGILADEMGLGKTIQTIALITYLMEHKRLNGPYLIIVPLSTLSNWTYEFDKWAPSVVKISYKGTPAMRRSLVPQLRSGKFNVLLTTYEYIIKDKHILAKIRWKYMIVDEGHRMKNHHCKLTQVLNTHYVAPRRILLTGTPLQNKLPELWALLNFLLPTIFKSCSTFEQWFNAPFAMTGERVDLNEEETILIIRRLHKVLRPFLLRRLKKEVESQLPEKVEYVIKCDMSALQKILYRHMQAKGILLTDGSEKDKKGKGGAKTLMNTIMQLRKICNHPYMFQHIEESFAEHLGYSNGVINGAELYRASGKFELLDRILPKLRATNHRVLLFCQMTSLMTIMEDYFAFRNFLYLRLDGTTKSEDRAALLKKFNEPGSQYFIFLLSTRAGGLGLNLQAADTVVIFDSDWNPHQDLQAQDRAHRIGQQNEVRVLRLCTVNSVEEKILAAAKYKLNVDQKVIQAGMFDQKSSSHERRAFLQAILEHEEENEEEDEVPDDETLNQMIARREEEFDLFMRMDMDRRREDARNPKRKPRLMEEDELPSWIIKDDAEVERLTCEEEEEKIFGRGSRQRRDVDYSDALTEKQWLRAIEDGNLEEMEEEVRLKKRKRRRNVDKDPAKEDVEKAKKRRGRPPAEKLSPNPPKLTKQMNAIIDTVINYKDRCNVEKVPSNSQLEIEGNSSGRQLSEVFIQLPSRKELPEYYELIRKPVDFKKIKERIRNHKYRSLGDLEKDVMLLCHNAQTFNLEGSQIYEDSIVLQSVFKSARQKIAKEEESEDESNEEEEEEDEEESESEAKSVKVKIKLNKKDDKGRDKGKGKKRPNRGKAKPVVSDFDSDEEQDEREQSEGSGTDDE

In the case of `CC(c1ccccc1)n1cc(-c2cc(-c3cccn(C)c3=O)cnc2N)cn1` (centres unmarked) [I-1, 6′-Amino-1-methyl-5′-(1-(1-phenylethyl)-1H-pyrazol-4-yl)-[3,3′-bipyridin]-2(1H)-one], the Kd at SMARCA2 [1] was more than 1000 nM.

On to `Cn1cccc(-c2cnc(N)c(-c3cn[nH]c3)c2)c1=O` [I-2, 3-[6-Amino-5-(1H-pyrazol-4-yl)-3-pyridyl]-1-methyl-pyridin-2-one], for which the Kd on SMARCA2 [1] was more than 1000 nM.

Take `O=c1c2c(O)cccc2ccn1Cc1cnn(Cc2ccccc2)c1` [I-3, 2-((1-benzyl-1H-pyrazol-4-yl)methyl)-8-hydroxyisoquinolin-1(2H)-one]: the Kd at SMARCA2 [1] was more than 1000 nM.

`O=c1c2c(O)cccc2ccn1Cc1cn[nH]c1` [I-4, 2-((1H-pyrazol-4-yl)methyl)-8-hydroxyisoquinolin-1(2H)-one]: on SMARCA2 [1], the Kd is more than 1000 nM. The same measure, in the same setting: in the case of `O=c1c2c(O)cccc2ccn1CC1CCN(c2ccccn2)C1` (centres unmarked) [I-5, 8-hydroxy-2-((1-(pyridin-2-yl)pyrrolidin-3-yl)methyl)isoquinolin-1(2H)-one] it was more than 1000 nM; in that of `CC(C)(C)OC(=O)N1CCCC1Cn1ccc2cccc(O)c2c1=O` (centres unmarked) [I-6, Tert-butyl-2-((8-hydroxy-1-oxoisoquinolin-2(1H)-yl)methyl)pyrrolidine-1-carboxylate], more than 1000 nM. Regarding `O=c1c2c(O)cccc2ccn1CC1CCCN1` (centres unmarked) [I-7, 8-hydroxy-2-(pyrrolidin-2-ylmethyl)isoquinolin-1(2H)-one], the Kd at SMARCA2 [1] was more than 1000 nM. Same read-out and setting: in the case of `CC(C)(C)OC(=O)N1CCC(Cn2ccc3cccc(O)c3c2=O)C1` (centres unmarked) [I-9, Tert-butyl 3-((8-hydroxy-1-oxoisoquinolin-2(1H)-yl)methyl)pyrrolidine-1-carboxylate] it was more than 1000 nM; in that of `O=c1c2c(O)cccc2ccn1CC1CCNC1` (centres unmarked) [I-10, 8-hydroxy-2-(pyrrolidin-3-ylmethyl)isoquinolin-1(2H)-one], more than 1000 nM; in that of `O=c1ncn(-c2ccccc2)c2cccc(Cl)c12` [I-11, 5-Chloro-1-phenylquinazolin-4(1H)-one], more than 1000 nM. Same read-out and setting: the same measure for `Nc1ncc(-c2ncccn2)cc1C1CCNCC1` [I-13]: more than 1000 nM; for `Nc1ncc(-c2ncccn2)cc1N1CCNCC1` [I-14, 3-(piperazin-1-yl)-5-(pyrimidin-2-yl)pyridin-2-amine]: more than 1000 nM; for `Nc1ncc(-c2cccc(Cl)c2)cc1N1CCNCC1` [I-15, 5-(3-chlorophenyl)-3-(piperazin-1-yl)pyridin-2-amine]: more than 1000 nM. For the molecule `O=C(NCC1CCN(c2ccccn2)CC1)c1ccccc1O` [I-16, 2-Hydroxy-N-((1-(pyridin-2-yl)piperidin-4-yl)methyl)benzamide], on SMARCA2 [1], the Kd was more than 1000 nM. The same measure, in the same setting: in the case of `Nc1nnc(-c2cnccc2O)cc1N1CCNCC1` [I-17, 3-(6-Amino-5-(piperazin-1-yl)pyridazin-3-yl)pyridin-4-ol] it was more than 1000 nM; in that of `CCCCOc1ccc(N2CCN(c3cc(-c4ccccc4O)nnc3N)CC2)cc1` [I-18, 2-(6-Amino-5-(4-(4-butoxyphenyl)piperazin-1-yl)pyridazin-3-yl)phenol], more than 1000 nM. On to `Oc1ccccc1-c1cc2cc[nH]c2nn1` [I-19, 2-(7H-Pyrrolo[2,3-c]pyridazin-3-yl)phenol], for which the Kd at SMARCA2 [1] was less than 100 nM. At SMARCA2 [2], the IC50 fell in the range of 1000 to 100000 nM. Regarding `Oc1ccccc1-c1cc2c(C3CCNCC3)c[nH]c2nn1` [I-20, 2-(5-(Piperidin-4-yl)-7H-pyrrolo[2,3-c]pyridazin-3-yl)phenol], the Kd at SMARCA2 [1] was less than 100 nM. For the molecule `O=C(Nc1ccc2cn[nH]c2c1)c1ccccc1O` [I-21, 2-Hydroxy-N-(1H-indazol-6-yl)benzamide], the Kd on SMARCA2 [1] is more than 1000 nM. For the molecule `O=C(Nc1cc(C2CCNCC2)cc2[nH]ncc12)c1ccccc1O` [I-22, 2-Hydroxy-N-(6-(piperidin-4-yl)-1H-indazol-4-yl)benzamide], the Kd at SMARCA2 [1] is more than 1000 nM. Same read-out and setting: in the case of `O=C(Nc1ccc2c(C3CCNCC3)n[nH]c2c1)c1ccccc1O` [I-23, 2-Hydroxy-N-[3-(4-piperidyl)-1H-indazol-6-yl]benzamide] it was more than 1000 nM; in that of `c1ccc2c(c1)nnc1[nH]c(C3CCNCC3)cc12` [I-24, 2-(4-Piperidyl)-3H-pyrrolo [2,3-c]cinnoline], 501 to 1000 nM.

With `Nc1ncc2ccccc2c1C#CC1CCNCC1` [I-25, 4-(Piperidin-4-ylethynyl)isoquinolin-3-amine], on SMARCA2 [2], the concentration for half-maximal inhibition (IC50) lay within 101000 to 500000 nM. Take `Nc1ncc2c(Cl)cccc2c1C#CC1CCNCC1` [I-27, 8-Chloro-4-(piperidin-4-ylethynyl)isoquinolin-3-amine]: the Kd at SMARCA2 [1] was more than 1000 nM. Regarding `Oc1ccccc1-c1cc(-c2ccc(CN3CCNCC3)cc2)[nH]n1` [I-28, 2-[5-[4-(piperazin-1-ylmethyl)phenyl]-1H-pyrazol-3-yl]phenol], the Kd on SMARCA2 [1] was more than 1000 nM. Same read-out and setting: in the case of `Oc1ccccc1-c1n[nH]c2ccccc12` [I-29, 2-(1H-indazol-3-yl)phenol] it was more than 1000 nM; in that of `Oc1ccccc1-c1n[nH]c2ccncc12` [I-30, 2-(1H-Pyrazolo[4,3-c]pyridin-3-yl)phenol], more than 1000 nM; in that of `Nc1nnc(-c2ccc(Cl)cc2O)cc1N1CCNCC1` [I-31, 2-(6-Amino-5-piperazin-1-yl-pyridazin-3-yl)-5-chloro-phenol], more than 1000 nM. Take `Nc1nnc(-c2cccc(Cl)c2O)cc1N1CCNCC1` [I-32, 2-(6-Amino-5-(piperazin-1-yl)pyridazin-3-yl)-6-chlorophenol]: the Kd on SMARCA2 [1] is less than 100 nM.

Turning to `Nc1nnc(-c2cc(Cl)ccc2O)cc1N1CCNCC1` [I-33, 2-(6-Amino-5-piperazin-1-yl-pyridazin-3-yl)-4-chloro-phenol], the Kd on SMARCA2 [1] lay in the range of 100 to 500 nM. Take `Cc1ccc(O)c(-c2cc(N3CCNCC3)c(N)nn2)c1` [I-34, 2-(6-Amino-5-piperazin-1-yl-pyridazin-3-yl)-4-methyl-phenol]: the Kd at SMARCA2 [1] was more than 1000 nM.

With `Nc1nnc(-c2ccn[nH]2)cc1C1CCNCC1` [I-35, 4-(4-Piperidyl)-6-(1H-pyrazol-5-yl)pyridazin-3-amine], at SMARCA2 [1], the Kd is more than 1000 nM. Take `COC(=O)C1=CC(=O)N2CCCN=C2S1` [I-37]: the Kd on SMARCA2 [1] was more than 1000 nM. On the same count and under the same terms, the same measure for `COc1ccc(C(NC(=O)c2cc(-c3ccccc3O)n[nH]2)C2CC2)cc1` (centres unmarked) [I-38]: more than 1000 nM.
